Experimental data taken from patent US6914045B2, “Glycopeptide antibiotics” (Wyeth Holdings Corporation, priority 2001, dated 2005).

Key:
Test in all cases: in vitro antibacterial evaluation, MIC by broth dilution
Assay type in all cases: cell-based
Escherichia coli = conditions: 18 hours at 35° C.
Enterococcus sp. = conditions: broth dilution, 18 hours at 35° C.
Method in brief: (§1)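 MIC = lowest antibiotic concentration preventing visible growth; inoculum 5×10^5 CFU/mL; drug range 64-0.06 μg/mL; Muller-Hinton II […]; NCCLS M7-A2 guidance.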

Staphylococcus sp. = conditions: broth dilution, 18 hours at 35° C.
Method in brief: as §1

Streptococcus sp. = conditions: broth dilution, 18 hours at 35° C.
Method in brief: as §1

SMILES: CC(c1ccccc1)C1NC(=O)CNC(=O)C(CO)NC(=O)C(C(O)C2CNC(=N)N2C2OC(CO)C(O)C(O)C2O)NC(=O)C(C(O)C2CNC(=N)N2)NC(=O)C(Cc2ccc(OC3OC(CO)C(OC4OC(CO)C(O)C(O)C4OCc4ccc(OCc5ccccc5)cc4)C(O)C3O)cc2)NC1=O (stereo not drawn) [Example 231b, Cyclo[glycyl-β-methylphenylalanyl-O-[4-O-[2-O-[4-(phenylmethoxy)benzyl]hexopyranosyl]-hexopyranosyl]tyrosyl-3-(2-iminoimidazolidin-4-yl)seryl-3-(3-hexopyranosyl-2-iminoimidazolidin-4-yl)serylseryl]]
- MIC Escherichia coli (ATCC 25922) (Escherichia coli): >128 µg/mL
- MIC Escherichia coli (GC 4559) (Escherichia coli): >128 µg/mL
- MIC Escherichia coli (GC 4560) (Escherichia coli): 0.25 to 4 µg/mL
- MIC Enterococcus avium (GC 4558) (Enterococcus sp.): 8 to 64 µg/mL
- MIC Enterococcus faecalis (ATCC 29212) (Enterococcus sp.): 8 to 128 µg/mL
- MIC Enterococcus faecalis (GC 2242) (Enterococcus sp.): 8 to 64 µg/mL
- MIC Enterococcus faecalis (GC 2691) (Enterococcus sp.): 16 to 64 µg/mL
- MIC Enterococcus faecalis (GC 3059) (Enterococcus sp.): 16 to 128 µg/mL
- MIC Enterococcus faecalis (GC 4552) (Enterococcus sp.): 8 to 128 µg/mL
- MIC Enterococcus faecalis (GC 4553) (Enterococcus sp.): 8 to 128 µg/mL
- MIC Enterococcus faecalis (GC 4554) (Enterococcus sp.): 16 to 128 µg/mL
- MIC Enterococcus faecalis (GC 6189) (Enterococcus sp.): 8 to 64 µg/mL
- MIC Enterococcus faecium (GC 2243) (Enterococcus sp.): 8 to 128 µg/mL
- MIC Enterococcus faecium (GC 4556) (Enterococcus sp.): 16 to 128 µg/mL
- MIC Enterococcus faecium (GC 4557) (Enterococcus sp.): 4 to 16 µg/mL
- MIC Enterococcus faecalis (ATCC 29212) (Enterococcus sp.; inoculum 5×10^5 CFU/mL, strain ATCC 29212): 8 to 128 µg/mL
- MIC Enterococcus faecalis (GC 2242) (Enterococcus sp.; inoculum 5×10^5 CFU/mL, strain GC 2242): 8 to 64 µg/mL
- MIC Enterococcus faecium (GC 2243) (Enterococcus sp.; inoculum 5×10^5 CFU/mL, strain GC 2243): 8 to 128 µg/mL
- MIC Enterococcus faecalis (GC 2691) (Enterococcus sp.; inoculum 5×10^5 CFU/mL, strain GC 2691): 16 to 64 µg/mL
- MIC Enterococcus faecalis (GC 3059) (Enterococcus sp.; inoculum 5×10^5 CFU/mL, strain GC 3059): 16 to 128 µg/mL
- MIC Enterococcus faecalis (GC 4552) (Enterococcus sp.; inoculum 5×10^5 CFU/mL, strain GC 4552): 8 to 128 µg/mL
- MIC Enterococcus faecalis (GC 4553) (Enterococcus sp.; inoculum 5×10^5 CFU/mL, strain GC 4553): 8 to 128 µg/mL
- MIC Enterococcus faecalis (GC 4554) (Enterococcus sp.; inoculum 5×10^5 CFU/mL, strain GC 4554): 16 to 128 µg/mL
- MIC Enterococcus faecium (GC 4556) (Enterococcus sp.; inoculum 5×10^5 CFU/mL, strain GC 4556): 16 to 128 µg/mL
- MIC Enterococcus faecium (GC 4557) (Enterococcus sp.; inoculum 5×10^5 CFU/mL, strain GC 4557): 4 to 16 µg/mL
- MIC Enterococcus avium (GC 4558) (Enterococcus sp.; inoculum 5×10^5 CFU/mL, strain GC 4558): 8 to 64 µg/mL
- MIC Enterococcus faecalis (GC 6189) (Enterococcus sp.; inoculum 5×10^5 CFU/mL, strain GC 6189): 8 to 64 µg/mL
- MIC Coagulase Negative Staphylococcus (GC 4547) (Staphylococcus sp.): 4 to 32 µg/mL
- MIC Coagulase Negative Staphylococcus (GC 4548) (Staphylococcus sp.): 2 to 32 µg/mL
- MIC Coagulase Negative Staphylococcus (GC 4549) (Staphylococcus sp.): 2 to 16 µg/mL
- MIC Coagulase Negative Staphylococcus (GC 4551) (Staphylococcus sp.): 8 to 32 µg/mL
- MIC Coagulase Negative Staphylococcus (GC 6257) (Staphylococcus sp.): 1 to 32 µg/mL
- MIC Staphylococcus aureus (ATCC 29213) (Staphylococcus sp.): 4 to 64 µg/mL
- MIC Staphylococcus aureus (GC 1131) (Staphylococcus sp.): 4 to 64 µg/mL
- MIC Staphylococcus aureus (GC 3051) (Staphylococcus sp.): 4 to 64 µg/mL
- MIC Staphylococcus aureus (GC 3053) (Staphylococcus sp.): 8 to 64 µg/mL
- MIC Staphylococcus aureus (GC 4541) (Staphylococcus sp.): 4 to 32 µg/mL
- MIC Staphylococcus aureus (GC 4542) (Staphylococcus sp.): 4 to 32 µg/mL
- MIC Staphylococcus aureus (GC 4544) (Staphylococcus sp.): 4 to 64 µg/mL
- MIC Staphylococcus aureus (GC 4545) (Staphylococcus sp.): 4 to 32 µg/mL
- MIC Staphylococcus aureus-SMITH (GC 4543) (Staphylococcus sp.): 4 to 64 µg/mL
- MIC Staphylococcus haemolyticus (GC 4546) (Staphylococcus sp.): 4 to 32 µg/mL
- MIC Staphylococcus aureus (ATCC 29213) (Staphylococcus sp.; strain ATCC 29213): 4 to 64 µg/mL
- MIC Staphylococcus aureus (GC 1131) (Staphylococcus sp.; strain GC 1131): 4 to 64 µg/mL
- MIC Staphylococcus aureus (GC 3051) (Staphylococcus sp.; strain GC 3051): 4 to 64 µg/mL
- MIC Staphylococcus aureus (GC 3053) (Staphylococcus sp.; strain GC 3053): 8 to 64 µg/mL
- MIC Staphylococcus aureus (GC 4541) (Staphylococcus sp.; strain GC 4541): 4 to 32 µg/mL
- MIC Staphylococcus aureus (GC 4542) (Staphylococcus sp.; strain GC 4542): 4 to 32 µg/mL
- MIC Staphylococcus aureus-SMITH (GC 4543) (Staphylococcus sp.; strain GC 4543): 4 to 64 µg/mL
- MIC Staphylococcus aureus (GC 4544) (Staphylococcus sp.; strain GC 4544): 4 to 64 µg/mL
- MIC Staphylococcus aureus (GC 4545) (Staphylococcus sp.; strain GC 4545): 4 to 32 µg/mL
- MIC Staphylococcus haemolyticus (GC 4546) (Staphylococcus sp.; strain GC 4546): 4 to 32 µg/mL
- MIC Coagulase Negative Staphylococcus (GC 4547) (Staphylococcus sp.; strain GC 4547): 4 to 32 µg/mL
- MIC Coagulase Negative Staphylococcus (GC 4548) (Staphylococcus sp.; strain GC 4548): 2 to 32 µg/mL
- MIC Coagulase Negative Staphylococcus (GC 4549) (Staphylococcus sp.; strain GC 4549): 2 to 16 µg/mL
- MIC Coagulase Negative Staphylococcus (GC 4551) (Staphylococcus sp.; strain GC 4551): 8 to 32 µg/mL
- MIC Coagulase Negative Staphylococcus (GC 6257) (Staphylococcus sp.; strain GC 6257): 1 to 32 µg/mL
- MIC Streptococcus agalactiae (GC 4564) (Streptococcus sp.): 1 to 8 µg/mL
- MIC Streptococcus pneumoniae (ATCC 6301) (Streptococcus sp.): 0.25 to 2 µg/mL
- MIC Streptococcus pneumoniae (GC 1894) (Streptococcus sp.): <0.06 to 2 µg/mL
- MIC Streptococcus pneumoniae (GC 4565) (Streptococcus sp.): 0.5 to 8 µg/mL
- MIC Streptococcus pyogenes (GC 4563) (Streptococcus sp.): 1 to 8 µg/mL
- MIC Streptococcus pneumoniae (ATCC 6301) (Streptococcus sp.; inoculum 5×10^5 CFU/mL, strain ATCC 6301): 0.25 to 2 µg/mL
- MIC Streptococcus pneumoniae (GC 1894) (Streptococcus sp.; inoculum 5×10^5 CFU/mL, strain GC 1894): <0.06 to 2 µg/mL
- MIC Streptococcus pyogenes (GC 4563) (Streptococcus sp.; inoculum 5×10^5 CFU/mL, strain GC 4563): 1 to 8 µg/mL
- MIC Streptococcus agalactiae (GC 4564) (Streptococcus sp.; inoculum 5×10^5 CFU/mL, strain GC 4564): 1 to 8 µg/mL
- MIC Streptococcus pneumoniae (GC 4565) (Streptococcus sp.; inoculum 5×10^5 CFU/mL, strain GC 4565): 0.5 to 8 µg/mL
